The text below walks through data of patent US20240065999A1, “Ophthalmic Formulation Containing a Dopaminergic Prodrug that may be Combined with One or More Agents” (The Board of Trustees of the Leland Stanford Junior …, priority 2020, published 2024).

One data set concerns myopic progression. The settings on record: ATOM trial, cited from earlier work.
For data set [1] the following is noted: pig, 24 h, 0.5 %.
Source text: (§1) To assess the vitreous penetration, dopamine (dopamine hydrochloride; Sigma-Aldrich, St. Louis, Mo., USA), and etilevodopa (BOC Sciences, Shirley, N.Y., USA) were freshly dissolved in phosphate buffered saline solution (PBS, pH 7.4; Aniara, West Chester, Ohio, USA) at the concentration of 0.5%, whereas levodopa (Sigma-Aldrich) was freshly dissolved in distilled water at 0.5%. Thirty microliters of each solution was placed onto the cornea of enucleated porcine eyes (Animal Technologies, Tyler, Tex., USA; at least six porcine eyes were studied for each treatment), which were no more than 30 hours since enucleation and were maintained on ice throughout experimentation. PBS was used as a vehicle control. The vitreous humor sample was collected after 24 hours for quantitative measurement of dopaminergic derivative level using an enzyme-linked immunosorbent assay (ELISA) kit according to the manufacturers' protocol (dopamine ELISA kit; Immuno-Biological Laboratories, Inc., Minneapolis, Minn., USA).
For another data set, the system named is rat eyes. The data set is described as follows: Histology and immunohistochemistry (H&E, cleaved caspase-3, TUNEL) of rat eyes. Format: in vivo, Long Evans rat. The settings on record: 5 μL etilevodopa 10% once daily, 14 and 28 days. How it is done: To assess for inflammation and apoptosis, 5 μL of etilevodopa 10% was administered as a once-daily eye drop to one eye of each rat, and the contralateral eye received PBS as a control. Rat eyes were enucleated at 14 and 28 days after treatment and fixed in 4% paraformaldehyde (VWR, Visalia, Calif., USA) overnight at 4° C., dehydrated in graded series of sucrose and alcohol, frozen, and cut into 12 μm sections onto glass slides.
For inflammation, frozen sections were first fixed in 10% formalin (Sigma-Aldrich) for 20 minutes and washed in water, followed by staining the nuclei with hematoxylin for three minutes and washing in water again. The slides were then dipped in lithium carbonate (bluing agent) for 45 seconds, washed in water, immersed in 95% ethanol (2-3 dips), and stained with eosin for another three minutes. After dehydrating in 95% ethanol for one minute and then in 100% ethanol for two minutes, the slides were mounted with Cytoseal 60 and imaged using Nikon Eclipse E800 microscope (Nikon Corp., Tokyo, Japan).
For apoptosis, sections were stained with cleaved caspase-3 (Cell Signaling, Beverly, Mass., USA). Briefly, sections were first washed with washing buffer (0.1% Triton X-100 in PBS) three times for five minutes each, blocked with 5% bovine serum albumin (Fraction V; Sigma-Aldrich) in washing buffer for one hour, followed by incubating in primary antibody-cleaved caspase-3 (1:200 in washing buffer) for two hours. After washing three times for five minutes each, sections were incubated in secondary antibody (AlexaFluor 488 donkey anti-rabbit IgG; 1:400; Invitrogen, Waltham, Mass., USA) in washing buffer for one hour, followed by washing another three times and mounting with 4′,6-diamidino-2-phenylindole (DAPI)-containing mounting media (Vectashield; Vector Laboratories, Burlingame, Calif., USA). Slides were imaged using Leica DMi8 microscope (Leica Microsystems Inc., Buffalo Grove, Ill., USA). Terminal deoxynucleotidyl transferase dUTP nick end labeling (TUNEL) assay was also performed to further detect apoptosis using TUNEL label mix kit (Sigma-Aldrich). […]

Data set [2] in a line: Ex vivo ocular penetration of dopamine and dopaminergic derivatives in enucleated porcine eyes (dopamine ELISA). As to conditions: topical. For orientation: In an ELISA, binding on a coated surface is turned into a signal by an enzyme label.
Source text: as §1
The next data set relates to Long Evans rat eyes. The data set is described as follows: Clinical examination, OCT imaging and ERG after once-daily topical etilevodopa. In kind it is in vivo. How it is done: Etilevodopa 10% 5 μL was administered as an eye drop once daily to one eye of each rat for 28 consecutive days, and the contralateral eye received PBS as a control. To assess the tolerability after administering etilevodopa over time, clinical examination was conducted at 14 and 28 days during treatment. To assess retinal structure and function, spectral-domain OCT (Spectralis HRA+OCT instrument; Heidelberg Engineering, Heidelberg, Germany) and full-field ERG (D300; Diagnosys LLC, Lowell, Mass., USA) were also performed at 14 and 28 days. Briefly, rats were first anesthetized with intraperitoneal injection of a mixture of ketamine hydrochloride (75 mg/kg; Hospira, Inc., Lake Forest, Ill., USA) and xylazine (5 mg/kg; Bedford Laboratories, Bedford, Ohio, USA). The corneas were topically anesthetized with tetracaine 0.5% (Alcon Laboratories, Inc. Fort Worth, Tex., USA), and the pupils were dilated with tropicamide 1% (Akorn, Inc., Lake Forest, Ill., USA) and phenylephrine hydrochloride 2.5% (Akorn, Inc.).
For clinical examination, 1% methylcellulose and a plastic coverslip were applied to the cornea to enhance visualization. A Zeiss OPMI MDO S5 Microscope (Prescott's, Inc., Monument, Col., USA) with an Excelis camera (ACCU-SCOPE, Inc., Commack, N.Y., USA) was used to digitally record ocular photos.
For OCT, 1% methylcellulose and a coverslip were placed on the anesthetized rat cornea. A commercially available 78-D double aspheric fundus lens (Volk Optical, Inc., Mentor, Ohio, USA) was mounted in front of the OCT and images were taken with proprietary software (Eye Explorer, version 3.2.1.0; Heidelberg Engineering). A raster scan of 19 equally spaced horizontal B-scans centered on the optic nerve was captured.
For full-field ERG, rats were dark-adapted overnight. A gold wire loop was placed on the cornea of both eyes, a reference electrode was placed subcutaneously on the nose, and a ground electrode was placed in the tail. ERG responses were recorded from both eyes simultaneously. The flash intensity was set at six increasing intensities of 0.0001, 0.001, 0.01, 0.1, 1, and 3 cd·s/m2. ERG recordings were averaged over 10 presentations of a single one-millisecond flash with a 10-second interstimulus interval. The A-wave amplitude was measured from the baseline to trough, while the B-wave was measured from the trough to peak.

Data set [3] can be described thus: Maximum solubility / achievable concentration of topical solutions. Format: physicochemical. From the text:
PBS was used as a vehicle control.

Data set [4] in a line: Observation of rat behavior during the 28-day study. In kind it is in vivo. The settings on record: once-daily topical etilevodopa.
Data set [5] is described as follows: In vivo pharmacokinetics after a single topical treatment of etilevodopa 10% in Long Evans rat eyes. As to conditions: single topical etilevodopa 10%, noncompartmental analysis. The protocol: To assess the short-term pharmacokinetic effect, 5 μL of etilevodopa 10% was instilled onto a rat eye. At one, two, four, eight, and 24 hours, rats were sacrificed (at least three rats were studied at each time point). Serum was obtained by allowing the blood sample to clot at room temperature for 0.5 to 1 hour, followed by centrifuging at 13,000 rpm for 10 minutes (MiniSpin Eppendorf; Thermo Fisher Scientific, Waltham, Mass., USA). Serum was then frozen at −80° C. until tested. Eyes were enucleated and collected for quantitative measurement of dopaminergic derivative levels. Concentrations of dopaminergic derivative in both whole eye and vitreous/retina were measured for pharmacokinetic evaluation. Briefly, tissue samples were incubated with 150 μL lysis buffer (CelLytic MT Cell Lysis Reagent; Sigma-Aldrich) for 0.5 to 1 hour, followed by centrifuge at 13,000 rpm for 10 minutes, and the supernatant was collected. All samples were immediately frozen at −80° C. until tested. The level of dopaminergic derivative was measured in both serum and eye using a dopamine ELISA kit (Immuno-Biological Laboratories, Inc.) according to the manufacturer's instruction.

For data set [6] the following is noted: ibopamine for hypotony, before 24 weeks; cited from earlier work.
Data set [7] concerns axial elongation. Briefly: Reduction of axial elongation by levodopa in chicks (Thomson et al.). Format: in vivo. The settings on record: Gallus gallus; calculated using a chick vitreous volume of 200 μL; read-out: EC50 as intravitreal concentration.
Data set [8] deals with axial elongation. The settings on record: chick, Thomson et al., cited from earlier work.
For the next data set, the system named is intravitreal dopamine. As to conditions: chick eyes with negative lenses, after three days of treatment; cited from earlier work.
The mark [9] stands for this setting: 1% atropine nightly in one eye over two years.

Converted amounts (≈) assume the structure as drawn. Structures can show the parent of a compound that is named as a salt. Where two headings read alike, the source gives them in different places.

Take `CN1[C@@H]2CC[C@H]1C[C@@H](OC(=O)C(CO)c1ccccc1)C2` (some centres unmarked) [atropine]: in the data set on myopic progression (setting [9]), the diopter difference result was “~+0.8 diopter” and the “reduction of myopic progression” value was 77%. Besides, the axial length entry in the data set on myopic progression (1% atropine nightly over two years) was “remained unchanged”.

In the case of `NCCc1ccc(O)c(O)c1` [dopamine, dopamine hydrochloride], in data set [1], the “concentration of dopaminergic derivatives in the vitreous” value is given as 375.1 ng/mL and the “fold higher intravitreal concentration as compared to etilevodopa 10%” value amounted to 10 fold.

As to `CCOC(=O)[C@@H](N)Cc1ccc(O)c(O)c1` [etilevodopa], in the data set on rat eyes, the “TUNEL+ DAPI+ cells” value is “no TUNEL+ DAPI+ cells observed”; the “hematoxylin and eosin staining of the retina” value is given as “no infiltration of inflammatory cells, fibrosis or morphological changes”; the “number of cleaved caspase-3+ DAPI+ cells, treatment vs control” value is given as “no statistically significant change”. The “corneal penetration as compared to levodopa at a given concentration” value in [2] is “did not exhibit enhanced corneal penetration”. The direct toxicity result in the data set on Long Evans rat eyes (four-week application as a topical eye drop) is given as “no evidence of direct toxicity”. In addition, in the data set on Long Evans rat eyes (in vivo), the “ERG A-wave amplitude, treated vs control eyes” value was “no statistically significant difference”; the “ERG B-wave amplitude, treated vs control eyes” value was “no statistically significant difference”; the OCT retinal structure entry was “did not demonstrate any qualitative structural changes”; the “clinical eye photos (inflammatory response, corneal opacity, fundus abnormalities, conjunctival redness)” value is recorded as “no evidence of inflammatory response, corneal opacity, fundus abnormalities, or conjunctival redness”. Moreover, in the data set with Long Evans rat eyes (in vivo), the “cornea and lens clarity” value is “remained clear”; the “overall retina morphology and blood vessels” value is reported as “remained unchanged”; the “retinal detachment, edema or inflammation” value is recorded as “No retinal detachment, edema or inflammation was observed”. The molecule also had a maximum solubility in [3] (PBS, pH 7.4) of 10%. The “rat behavior (activity levels, aggression, feeding pattern, weight gain)” value in [4] is recorded as “no obvious changes in rat behavior”. In data set [5] (blood), the AUC0→∞ was determined as 11.2 ng·h/mL. In [5] (retina/vitreous), this molecule yielded an AUC0→∞ of 818 ng·h/mL. The same molecule displayed an AUC0→∞ in [5] (whole eye) of 4300 ng·h/mL.

`CNCCc1ccc(OC(=O)C(C)C)c(OC(=O)C(C)C)c1` [ibopamine]: the “patients who stopped using the drug due to follicular conjunctivitis or irritation” value in data set [6] is reported as 8 of 17.

For the molecule `N[C@@H](Cc1ccc(O)c(O)c1)C(=O)O` [levodopa], the EC50 was about 7.9 ng/mL (≈ 0.0401 µM) in the data set on axial elongation [7] and 800 nM with axial elongation [8] (intravitreal administration, 10 μL dose, read-out: EC50 for a reduction of axial elongation). The molecule further came in with a maximum concentration achievable in [3] (distilled water) of 0.5%. Also, in [1], the “concentration of dopaminergic derivatives in the vitreous” value was found to be 11.9 ng/mL. Moreover, the “EC50 for a reduction of axial elongation” value in the data set with axial elongation [8] (topical levodopa) was 0.05%.

For the molecule “insulin (Insulin B chain AANQHLCGSHLVEALYLVCGERGFFYSPKA; Insulin A chain GIVEQCCHNTCSLYQLENYCN; UniProt P67970 25-54; P67970 87-107, looked up) [insulin injected into chick eyes treated with negative lenses]”, the “increase in intravitreal dopamine” value with intravitreal dopamine was 2 fold.
